# Results from patent US9302999B2, “Substituted triazoles as herbicides” (E. I. DU PONT DE NEMOURS AND COMPANY, priority 2012, dated 2016).
# Assays:
# Type in all cases: in vivo
# [1] = test system: barnyardgrass (Echinochloa crus-galli); assay: Test A pre-/postemergence: barnyardgrass; conditions: for Barnyardgrass plant response rating: Postemergence; for Plant response rating, Barnyardgrass: Preemergence
# How it was run: (§1)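 Visual 0–100 injury ratings (0 no effect, 100 complete control) taken about ten days after treatment, relative to untreated controls. Preemergence treatment was a directed soil spray; postemergence plants were 2–10 cm tall at one- to two-leaf stage. Soil: loam/sand blend.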
# [2] = test system: ducksalad (Heteranthera limosa); assay: Test C flooded paddy test: ducksalad; conditions: scale 0 to 100 (0 no effect, 100 complete control)
# How it was run: (§2)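 Plants were grown to the 2-leaf stage, pots flooded to 3 cm above soil, and test compounds applied directly to the paddy water, with that depth held throughout. After 13 to 15 days in a greenhouse, injury was visually rated against controls on a 0 (no effect) to 100 (complete control) scale.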
# [3] = test system: rice (Oryza sativa); assay: Test C flooded paddy test: rice; conditions: scale 0 to 100 (0 no effect, 100 complete control)
# Source text: (§3) Plant species in the flooded paddy test consisted of rice (Oryza sativa), sedge, umbrella (small-flower umbrella sedge, Cyperus difformis), ducksalad (Heteranthera limosa) and barnyardgrass (Echinochloa crus-galli) grown to the 2-leaf stage for testing. At time of treatment, test pots were flooded to 3 cm above the soil surface, treated by application of test compounds directly to the paddy water, and then maintained at that water depth for the duration of the test.
# (§4) Treated plants and controls were maintained in a greenhouse for 13 to 15 days, after which time all species were compared to controls and visually evaluated. Plant response ratings, summarized in Table C, are based on a scale of 0 to 100 where 0 is no effect and 100 is complete control. A dash (-) response means no test result.
# [4] = test system: corn (Zea mays); assay: Test A pre-/postemergence: corn; conditions: for Corn plant response rating: Postemergence; for Plant response rating, Corn: Preemergence
# How it was run: as §1
# [5] = test system: velvetleaf (Abutilon theophrasti); assay: Test A pre-/postemergence: velvetleaf; conditions: for Velvetleaf plant response rating: Postemergence; for Plant response rating, Velvetleaf: Preemergence
# How it was run: as §1
# [6] = test system: pigweed (Amaranthus retroflexus); assay: Test A pre-/postemergence: pigweed; conditions: for Pigweed plant response rating: Postemergence; for Plant response rating, Pigweed: Preemergence
# How it was run: as §1
# [7] = test system: barnyardgrass (Echinochloa crus-galli); assay: Test C flooded paddy test: barnyardgrass; conditions: scale 0 to 100 (0 no effect, 100 complete control)
# Source text: as §3, §4
# [8] = test system: wheat (Triticum aestivum); assay: Test A pre-/postemergence: wheat; conditions: for Wheat plant response rating: Postemergence; for Plant response rating, Wheat: Preemergence
# How it was run: as §1
# [9] = test system: morningglory (Ipomoea spp.); assay: Test A pre-/postemergence: morningglory; conditions: for Morningglory plant response rating: Postemergence; for Plant response rating, Morningglory: Preemergence
# How it was run: as §1
# [10] = test system: crabgrass, large (large crabgrass, Digitaria sanguinalis); assay: Test A pre-/postemergence: crabgrass, large; conditions: for Crabgrass, Large plant response rating: Postemergence; for Plant response rating, Crabgrass, Large: Preemergence
# How it was run: as §1
# [11] = test system: sedge, umbrella (small-flower umbrella sedge, Cyperus difformis); assay: Test C flooded paddy test: sedge, umbrella; conditions: scale 0 to 100 (0 no effect, 100 complete control)
# How it was run: as §2
# [12] = test system: foxtail, giant (giant foxtail, Setaria faberii); assay: Test A pre-/postemergence: foxtail, giant; conditions: for Foxtail, Giant plant response rating: Postemergence; for Plant response rating, Foxtail, Giant: Preemergence
# How it was run: as §1
# [13] = 125 g ai/ha, 0 to 100 scale, 0 is no effect, 100 is complete control
# [14] = 500 g ai/ha, visual rating on 0 to 100 scale (0 no effect, 100 complete control), approximately ten days
# [15] = 125 g ai/ha, 0 to 100 scale (0 no effect, 100 complete control)
# [16] = 500 g ai/ha, 0 to 100 scale, 0 is no effect, 100 is complete control
# [17] = Flood (flooded paddy test), 62 g ai/ha, visual rating after 13 to 15 days
# [18] = Flood (flooded paddy test), 125 g ai/ha, visual rating after 13 to 15 days
# [19] = Flood (flooded paddy test), 250 g ai/ha, visual rating after 13 to 15 days
smiles,measurement,setting,value
Cc1nn(-c2ccncc2)nc1C(=O)c1cccc(C(F)(F)F)c1 [Compound 22],Barnyardgrass plant response rating,[1]; [13],10
same,Barnyardgrass plant response rating,[1]; [14],20
same,"Plant response rating, Barnyardgrass",[1]; [15],0
same,"Plant response rating, Barnyardgrass",[1]; [16],10
same,"Plant response rating, Ducksalad",[2]; [17],0
same,"Plant response rating, Ducksalad",[2]; [18],0
same,"Plant response rating, Ducksalad",[2]; [19],0
same,"Plant response rating, Ducksalad","[2]; Flood, 31 g ai/ha",0
same,"Plant response rating, Rice",[3]; [17],0
same,"Plant response rating, Rice",[3]; [18],0
same,"Plant response rating, Rice",[3]; [19],0
same,"Plant response rating, Rice","[3]; Flood, 31 g ai/ha",0
same,Corn plant response rating,[4]; [13],10
same,Corn plant response rating,[4]; [14],20
same,"Plant response rating, Corn",[4]; [15],0
same,"Plant response rating, Corn",[4]; [16],0
same,Velvetleaf plant response rating,[5]; [13],10
same,Velvetleaf plant response rating,[5]; [14],30
same,"Plant response rating, Velvetleaf",[5]; [15],0
same,"Plant response rating, Velvetleaf",[5]; [16],0
same,Pigweed plant response rating,[6]; [13],50
same,Pigweed plant response rating,[6]; [14],80
same,"Plant response rating, Pigweed",[6]; [15],10
same,"Plant response rating, Pigweed",[6]; [16],10
same,"Plant response rating, Barnyardgrass",[7]; [17],0
same,"Plant response rating, Barnyardgrass",[7]; [18],0
same,"Plant response rating, Barnyardgrass",[7]; [19],0
same,"Plant response rating, Barnyardgrass","[7]; Flood, 31 g ai/ha",0
same,Wheat plant response rating,[8]; [13],10
same,"Plant response rating, Wheat",[8]; [15],0
same,"Plant response rating, Wheat",[8]; [16],0
same,Morningglory plant response rating,[9]; [13],10
same,Morningglory plant response rating,[9]; [14],20
same,"Plant response rating, Morningglory",[9]; [15],0
same,"Plant response rating, Morningglory",[9]; [16],0
same,"Crabgrass, Large plant response rating",[10]; [13],40
same,"Crabgrass, Large plant response rating",[10]; [14],60
same,"Plant response rating, Crabgrass, Large",[10]; [15],10
same,"Plant response rating, Crabgrass, Large",[10]; [16],40
same,"Plant response rating, Sedge, Umbrella",[11]; [17],0
same,"Plant response rating, Sedge, Umbrella",[11]; [18],0
same,"Plant response rating, Sedge, Umbrella",[11]; [19],0
same,"Plant response rating, Sedge, Umbrella","[11]; Flood, 31 g ai/ha",0
same,"Foxtail, Giant plant response rating",[12]; [13],20
same,"Foxtail, Giant plant response rating",[12]; [14],50
same,"Plant response rating, Foxtail, Giant",[12]; [15],20
same,"Plant response rating, Foxtail, Giant",[12]; [16],80
COc1nn(-c2ccc(C(F)(F)F)cc2)nc1Cc1cccc(C(F)(F)F)c1 [Compound 29],Barnyardgrass plant response rating,[1]; [13],20
same,Barnyardgrass plant response rating,[1]; [14],40
same,"Plant response rating, Barnyardgrass",[1]; [15],10
same,"Plant response rating, Barnyardgrass",[1]; [16],50
same,"Plant response rating, Ducksalad",[2]; [17],0
same,"Plant response rating, Ducksalad",[2]; [18],0
same,"Plant response rating, Ducksalad",[2]; [19],0
same,"Plant response rating, Ducksalad","[2]; Flood, 31 g ai/ha",0
same,"Plant response rating, Rice",[3]; [17],0
same,"Plant response rating, Rice",[3]; [18],0
same,"Plant response rating, Rice",[3]; [19],0
same,"Plant response rating, Rice","[3]; Flood, 31 g ai/ha",0
same,Corn plant response rating,[4]; [13],20
same,Corn plant response rating,[4]; [14],20
same,"Plant response rating, Corn",[4]; [15],0
same,"Plant response rating, Corn",[4]; [16],0
same,Velvetleaf plant response rating,[5]; [13],60
same,Velvetleaf plant response rating,[5]; [14],80
same,"Plant response rating, Velvetleaf",[5]; [15],0
same,"Plant response rating, Velvetleaf",[5]; [16],50
same,Pigweed plant response rating,[6]; [13],100
same,Pigweed plant response rating,[6]; [14],100
same,"Plant response rating, Pigweed",[6]; [15],50
same,"Plant response rating, Pigweed",[6]; [16],90
same,"Plant response rating, Barnyardgrass",[7]; [17],0
same,"Plant response rating, Barnyardgrass",[7]; [18],0
same,"Plant response rating, Barnyardgrass",[7]; [19],20
same,"Plant response rating, Barnyardgrass","[7]; Flood, 31 g ai/ha",0
same,Wheat plant response rating,[8]; [13],0
same,Wheat plant response rating,[8]; [14],30
same,"Plant response rating, Wheat",[8]; [15],0
same,"Plant response rating, Wheat",[8]; [16],0
same,Morningglory plant response rating,[9]; [13],80
same,Morningglory plant response rating,[9]; [14],100
same,"Plant response rating, Morningglory",[9]; [15],0
same,"Plant response rating, Morningglory",[9]; [16],10
same,"Crabgrass, Large plant response rating",[10]; [13],90
same,"Crabgrass, Large plant response rating",[10]; [14],90
same,"Plant response rating, Crabgrass, Large",[10]; [15],90
same,"Plant response rating, Crabgrass, Large",[10]; [16],100
same,"Plant response rating, Sedge, Umbrella",[11]; [17],60
same,"Plant response rating, Sedge, Umbrella",[11]; [18],70
same,"Plant response rating, Sedge, Umbrella",[11]; [19],75
same,"Plant response rating, Sedge, Umbrella","[11]; Flood, 31 g ai/ha",50
same,"Foxtail, Giant plant response rating",[12]; [13],60
same,"Foxtail, Giant plant response rating",[12]; [14],90
same,"Plant response rating, Foxtail, Giant",[12]; [15],80
same,"Plant response rating, Foxtail, Giant",[12]; [16],100
Cc1nn(-c2ccc(F)cc2)nc1Cc1ccnc(OCC(F)(F)F)c1 [Compound 33],Barnyardgrass plant response rating,[1]; [13],0
same,Barnyardgrass plant response rating,[1]; [14],0
same,"Plant response rating, Barnyardgrass",[1]; [15],0
same,"Plant response rating, Barnyardgrass",[1]; [16],0
same,"Plant response rating, Ducksalad",[2]; [17],0
same,"Plant response rating, Ducksalad",[2]; [18],0
same,"Plant response rating, Ducksalad",[2]; [19],0
same,"Plant response rating, Ducksalad","[2]; Flood, 31 g ai/ha",0
same,"Plant response rating, Rice",[3]; [17],0
same,"Plant response rating, Rice",[3]; [18],0
same,"Plant response rating, Rice",[3]; [19],0
same,"Plant response rating, Rice","[3]; Flood, 31 g ai/ha",0
same,Corn plant response rating,[4]; [13],0
same,Corn plant response rating,[4]; [14],10
same,"Plant response rating, Corn",[4]; [15],0
same,"Plant response rating, Corn",[4]; [16],0
same,Velvetleaf plant response rating,[5]; [13],0
same,Velvetleaf plant response rating,[5]; [14],0
same,"Plant response rating, Velvetleaf",[5]; [15],0
same,"Plant response rating, Velvetleaf",[5]; [16],0
same,Pigweed plant response rating,[6]; [13],10
same,Pigweed plant response rating,[6]; [14],50
same,"Plant response rating, Pigweed",[6]; [15],0
same,"Plant response rating, Pigweed",[6]; [16],0
same,"Plant response rating, Barnyardgrass",[7]; [17],0
same,"Plant response rating, Barnyardgrass",[7]; [18],0
same,"Plant response rating, Barnyardgrass",[7]; [19],0
same,"Plant response rating, Barnyardgrass","[7]; Flood, 31 g ai/ha",0
same,Wheat plant response rating,[8]; [13],0
same,Wheat plant response rating,[8]; [14],0
same,"Plant response rating, Wheat",[8]; [15],0
same,"Plant response rating, Wheat",[8]; [16],0
same,Morningglory plant response rating,[9]; [13],0
same,Morningglory plant response rating,[9]; [14],10
same,"Plant response rating, Morningglory",[9]; [15],0
same,"Plant response rating, Morningglory",[9]; [16],0
same,"Crabgrass, Large plant response rating",[10]; [13],0
same,"Crabgrass, Large plant response rating",[10]; [14],10
same,"Plant response rating, Crabgrass, Large",[10]; [15],0
same,"Plant response rating, Crabgrass, Large",[10]; [16],10
same,"Plant response rating, Sedge, Umbrella",[11]; [17],0
same,"Plant response rating, Sedge, Umbrella",[11]; [18],0
same,"Plant response rating, Sedge, Umbrella",[11]; [19],0
same,"Plant response rating, Sedge, Umbrella","[11]; Flood, 31 g ai/ha",0
same,"Foxtail, Giant plant response rating",[12]; [13],0
same,"Foxtail, Giant plant response rating",[12]; [14],10
same,"Plant response rating, Foxtail, Giant",[12]; [15],0
same,"Plant response rating, Foxtail, Giant",[12]; [16],0
